Assay results as given in article PMC6009956, “Design, synthesis and biological activity of N^4-phenylsubstituted-7H-pyrrolo[2,3-d]pyrimidin-4-amines as dual inhibitors of aurora kinase A and epidermal growth factor receptor kinase” (Journal of Enzyme Inhibition and Medicinal Chemistry, 2017).
Like-named read-outs stand apart in the source and are kept apart here.

Legend:
EGFR = EGFR (Homo sapiens, UniProt P00533); experiment: ADP-Glo kinase assay, EGFR; format: biochemical; parameters: purchased BPS Bioscience (assay run externally by the vendor)
aurora A kinase (AURKA) = biological target: T1, aurora A kinase (AURKA) (Homo sapiens, UniProt O14965); experiment: ADP-Glo kinase assay, Aurora A; format: biochemical
T1 construct: purchased BPS Bioscience (assay run externally by the vendor)
T1 sequence (O14965 1-403): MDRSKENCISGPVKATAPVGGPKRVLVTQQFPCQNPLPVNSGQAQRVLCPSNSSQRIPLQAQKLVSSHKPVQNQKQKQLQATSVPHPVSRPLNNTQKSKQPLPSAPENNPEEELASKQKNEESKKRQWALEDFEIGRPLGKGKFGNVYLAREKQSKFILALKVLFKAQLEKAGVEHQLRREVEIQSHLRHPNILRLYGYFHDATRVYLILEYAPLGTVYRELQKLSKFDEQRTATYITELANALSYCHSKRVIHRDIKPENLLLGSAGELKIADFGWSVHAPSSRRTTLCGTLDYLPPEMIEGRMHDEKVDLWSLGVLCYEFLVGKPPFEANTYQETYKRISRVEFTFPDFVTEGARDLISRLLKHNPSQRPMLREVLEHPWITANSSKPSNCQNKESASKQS

[1] = 10 µM ATP, triplicate, read-out: AURKA IC50 ± SD
[2] = 10 µM ATP/0.2 mg/ml Kemptide, read-out: Aurora A IC50 (dose-response curve, supplement)

Sequence of EGFR (P00533 25-1210): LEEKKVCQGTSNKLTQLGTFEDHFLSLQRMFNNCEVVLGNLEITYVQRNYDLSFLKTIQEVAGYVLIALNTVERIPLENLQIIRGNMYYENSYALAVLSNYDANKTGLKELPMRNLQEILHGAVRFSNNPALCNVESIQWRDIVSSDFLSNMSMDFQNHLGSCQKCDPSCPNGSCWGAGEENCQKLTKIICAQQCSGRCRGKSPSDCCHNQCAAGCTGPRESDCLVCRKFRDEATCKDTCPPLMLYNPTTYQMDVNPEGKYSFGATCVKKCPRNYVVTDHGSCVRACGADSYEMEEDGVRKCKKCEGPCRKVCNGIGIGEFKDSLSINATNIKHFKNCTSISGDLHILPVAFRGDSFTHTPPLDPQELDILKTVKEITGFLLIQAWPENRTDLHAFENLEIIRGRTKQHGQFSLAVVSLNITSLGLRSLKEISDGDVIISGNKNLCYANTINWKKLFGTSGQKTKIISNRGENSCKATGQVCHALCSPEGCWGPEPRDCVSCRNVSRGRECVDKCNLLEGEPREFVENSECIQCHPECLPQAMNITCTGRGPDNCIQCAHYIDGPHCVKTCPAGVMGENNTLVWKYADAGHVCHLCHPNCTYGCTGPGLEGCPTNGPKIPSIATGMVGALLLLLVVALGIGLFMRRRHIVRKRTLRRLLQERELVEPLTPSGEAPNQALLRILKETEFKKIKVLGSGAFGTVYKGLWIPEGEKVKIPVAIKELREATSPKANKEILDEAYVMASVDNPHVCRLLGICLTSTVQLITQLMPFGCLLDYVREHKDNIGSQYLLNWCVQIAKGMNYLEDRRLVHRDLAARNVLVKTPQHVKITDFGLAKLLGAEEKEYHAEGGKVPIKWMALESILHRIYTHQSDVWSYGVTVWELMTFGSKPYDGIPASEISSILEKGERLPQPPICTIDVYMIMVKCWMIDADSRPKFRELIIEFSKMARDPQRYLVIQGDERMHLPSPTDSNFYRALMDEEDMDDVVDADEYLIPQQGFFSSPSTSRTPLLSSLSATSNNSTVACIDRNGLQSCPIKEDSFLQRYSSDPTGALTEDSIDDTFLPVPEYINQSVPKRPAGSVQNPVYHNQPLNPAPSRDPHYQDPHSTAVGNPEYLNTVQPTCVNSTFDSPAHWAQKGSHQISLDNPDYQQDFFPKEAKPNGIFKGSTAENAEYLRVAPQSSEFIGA

FC(F)(F)c1cccc(Nc2ncnc3[nH]ccc23)c1 [Compound 13, N^4-(3-trifluoromethylphenyl)-7H-pyrrolo[2,3-d]pyrimidin-4-amine]
IC50 (EGFR; 10 µM ATP, triplicate, cell without unit, read-out: EGFR IC50 ± SD): 0.0436 ± 0.00777 µM
IC50 (EGFR; 10 µM ATP/0.2 mg/ml Poly-Glu-Tyr, read-out: EGFR IC50 (dose-response curve, supplement)): 0.0439 µM
EGFR % Activity Set1 (EGFR; Log[nM] 0): 91%
EGFR % Activity Set2 (EGFR; Log[nM] 0): 92%
EGFR % Activity Set3 (EGFR; Log[nM] 0): 91%
EGFR % Activity Set1 (EGFR; Log[nM] 1.0): 66%
EGFR % Activity Set2 (EGFR; Log[nM] 1.0): 76%
EGFR % Activity Set3 (EGFR; Log[nM] 1.0): 95%
EGFR % Activity Set1 (EGFR; Log[nM] 1.5): 54%
EGFR % Activity Set2 (EGFR; Log[nM] 1.5): 61%
EGFR % Activity Set3 (EGFR; Log[nM] 1.5): 56%
EGFR % Activity Set1 (EGFR; Log[nM] 2.0): 29%
EGFR % Activity Set2 (EGFR; Log[nM] 2.0): 30%
EGFR % Activity Set3 (EGFR; Log[nM] 2.0): 32%
EGFR % Activity Set1 (EGFR; Log[nM] 2.5): 17%
EGFR % Activity Set2 (EGFR; Log[nM] 2.5): 19%
EGFR % Activity Set3 (EGFR; Log[nM] 2.5): 15%
EGFR % Activity Set1 (EGFR; Log[nM] 3.0): 8%
EGFR % Activity Set2 (EGFR; Log[nM] 3.0): 8%
EGFR % Activity Set3 (EGFR; Log[nM] 3.0): 6%
EGFR % Activity Set1 (EGFR; Log[nM] 3.5): 3%
EGFR % Activity Set2 (EGFR; Log[nM] 3.5): 4%
EGFR % Activity Set3 (EGFR; Log[nM] 3.5): 3%
EGFR % Activity Set1 (EGFR; Log[nM] 4.0): 0%
EGFR % Activity Set2 (EGFR; Log[nM] 4.0): 1%
EGFR % Activity Set3 (EGFR; Log[nM] 4.0): 1%
EGFR % Activity Set1 (EGFR; Log[nM] 4.5): 0%
EGFR % Activity Set2 (EGFR; Log[nM] 4.5): 1%
EGFR % Activity Set3 (EGFR; Log[nM] 4.5): 0%
EGFR % Activity Set1 (EGFR; Log[nM] 5.0): 0%
EGFR % Activity Set2 (EGFR; Log[nM] 5.0): 0%
EGFR % Activity Set3 (EGFR; Log[nM] 5.0): 1%
IC50 (aurora A kinase (AURKA); [1]): 5.78 ± 0.43 µM
IC50 (aurora A kinase (AURKA); [2]): 5.8 µM
Aurora A % Activity Set1 (aurora A kinase (AURKA); Log[nM] 0): 94%
Aurora A % Activity Set2 (aurora A kinase (AURKA); Log[nM] 0): 101%
Aurora A % Activity Set3 (aurora A kinase (AURKA); Log[nM] 0): 96%
Aurora A % Activity Set1 (aurora A kinase (AURKA); Log[nM] 1.0): 103%
Aurora A % Activity Set2 (aurora A kinase (AURKA); Log[nM] 1.0): 101%
Aurora A % Activity Set3 (aurora A kinase (AURKA); Log[nM] 1.0): 106%
Aurora A % Activity Set1 (aurora A kinase (AURKA); Log[nM] 1.5): 107%
Aurora A % Activity Set2 (aurora A kinase (AURKA); Log[nM] 1.5): 113%
Aurora A % Activity Set3 (aurora A kinase (AURKA); Log[nM] 1.5): 119%
Aurora A % Activity Set1 (aurora A kinase (AURKA); Log[nM] 2.0): 110%
Aurora A % Activity Set2 (aurora A kinase (AURKA); Log[nM] 2.0): 108%
Aurora A % Activity Set3 (aurora A kinase (AURKA); Log[nM] 2.0): 113%
Aurora A % Activity Set1 (aurora A kinase (AURKA); Log[nM] 2.5): 108%
Aurora A % Activity Set2 (aurora A kinase (AURKA); Log[nM] 2.5): 108%
Aurora A % Activity Set3 (aurora A kinase (AURKA); Log[nM] 2.5): 112%
Aurora A % Activity Set1 (aurora A kinase (AURKA); Log[nM] 3.0): 94%
Aurora A % Activity Set2 (aurora A kinase (AURKA); Log[nM] 3.0): 100%
Aurora A % Activity Set3 (aurora A kinase (AURKA); Log[nM] 3.0): 94%
Aurora A % Activity Set1 (aurora A kinase (AURKA); Log[nM] 3.5): 73%
Aurora A % Activity Set2 (aurora A kinase (AURKA); Log[nM] 3.5): 63%
Aurora A % Activity Set3 (aurora A kinase (AURKA); Log[nM] 3.5): 72%
Aurora A % Activity Set1 (aurora A kinase (AURKA); Log[nM] 4.0): 32%
Aurora A % Activity Set2 (aurora A kinase (AURKA); Log[nM] 4.0): 26%
Aurora A % Activity Set3 (aurora A kinase (AURKA); Log[nM] 4.0): 28%
Aurora A % Activity Set1 (aurora A kinase (AURKA); Log[nM] 4.5): 13%
Aurora A % Activity Set2 (aurora A kinase (AURKA); Log[nM] 4.5): 10%
Aurora A % Activity Set3 (aurora A kinase (AURKA); Log[nM] 4.5): 11%
Aurora A % Activity Set1 (aurora A kinase (AURKA); Log[nM] 5.0): 14%
Aurora A % Activity Set2 (aurora A kinase (AURKA); Log[nM] 5.0): 11%
Aurora A % Activity Set3 (aurora A kinase (AURKA); Log[nM] 5.0): 13%

Clc1ccc(Nc2ncnc3[nH]ccc23)cc1Cl [Compound 5, N^4-(3,4-dichlorophenyl)-7H-pyrrolo[2,3-d]pyrimidine-4-amine]
EGFR inhibition (in words) (EGFR): single-digit nanomolar EGFR inhibition
IC50 (EGFR; 10 µM ATP, triplicate, read-out: EGFR IC50 ± SD): 0.0067 ± 0.00025 µM
EGFR % Activity Set1 (EGFR; Log[nM] 0): 51%
EGFR % Activity Set2 (EGFR; Log[nM] 0): 59%
EGFR % Activity Set3 (EGFR; Log[nM] 0): 58%
EGFR % Activity Set1 (EGFR; Log[nM] 1.0): 43%
EGFR % Activity Set2 (EGFR; Log[nM] 1.0): 46%
EGFR % Activity Set3 (EGFR; Log[nM] 1.0): 48%
EGFR % Activity Set1 (EGFR; Log[nM] 1.5): 14%
EGFR % Activity Set2 (EGFR; Log[nM] 1.5): 16%
EGFR % Activity Set3 (EGFR; Log[nM] 1.5): 16%
EGFR % Activity Set1 (EGFR; Log[nM] 2.0): 8%
EGFR % Activity Set2 (EGFR; Log[nM] 2.0): 9%
EGFR % Activity Set3 (EGFR; Log[nM] 2.0): 9%
EGFR % Activity Set1 (EGFR; Log[nM] 2.5): 3%
EGFR % Activity Set2 (EGFR; Log[nM] 2.5): 4%
EGFR % Activity Set3 (EGFR; Log[nM] 2.5): 5%
EGFR % Activity Set1 (EGFR; Log[nM] 3.0): 2%
EGFR % Activity Set2 (EGFR; Log[nM] 3.0): 2%
EGFR % Activity Set3 (EGFR; Log[nM] 3.0): 2%
EGFR % Activity Set1 (EGFR; Log[nM] 3.5): 1%
EGFR % Activity Set2 (EGFR; Log[nM] 3.5): 1%
EGFR % Activity Set3 (EGFR; Log[nM] 3.5): 1%
EGFR % Activity Set1 (EGFR; Log[nM] 4.0): 0%
EGFR % Activity Set2 (EGFR; Log[nM] 4.0): 0%
EGFR % Activity Set3 (EGFR; Log[nM] 4.0): 1%
EGFR % Activity Set1 (EGFR; Log[nM] 4.5): 0%
EGFR % Activity Set2 (EGFR; Log[nM] 4.5): 0%
EGFR % Activity Set3 (EGFR; Log[nM] 4.5): 0%
EGFR % Activity Set1 (EGFR; Log[nM] 5.0): 0%
EGFR % Activity Set2 (EGFR; Log[nM] 5.0): 3%
EGFR % Activity Set3 (EGFR; Log[nM] 5.0): 1%
IC50 (aurora A kinase (AURKA); [1]): 3.91 ± 0.11 µM
IC50 (aurora A kinase (AURKA); [2]): 3.9 µM
Aurora A % Activity Set1 (aurora A kinase (AURKA); Log[nM] 0): 95%
Aurora A % Activity Set2 (aurora A kinase (AURKA); Log[nM] 0): 97%
Aurora A % Activity Set3 (aurora A kinase (AURKA); Log[nM] 0): 103%
Aurora A % Activity Set1 (aurora A kinase (AURKA); Log[nM] 1.0): 104%
Aurora A % Activity Set2 (aurora A kinase (AURKA); Log[nM] 1.0): 95%
Aurora A % Activity Set3 (aurora A kinase (AURKA); Log[nM] 1.0): 97%
Aurora A % Activity Set1 (aurora A kinase (AURKA); Log[nM] 1.5): 98%
Aurora A % Activity Set2 (aurora A kinase (AURKA); Log[nM] 1.5): 101%
Aurora A % Activity Set3 (aurora A kinase (AURKA); Log[nM] 1.5): 102%
Aurora A % Activity Set1 (aurora A kinase (AURKA); Log[nM] 2.0): 104%
Aurora A % Activity Set2 (aurora A kinase (AURKA); Log[nM] 2.0): 107%
Aurora A % Activity Set3 (aurora A kinase (AURKA); Log[nM] 2.0): 105%
Aurora A % Activity Set1 (aurora A kinase (AURKA); Log[nM] 2.5): 103%
Aurora A % Activity Set2 (aurora A kinase (AURKA); Log[nM] 2.5): 108%
Aurora A % Activity Set3 (aurora A kinase (AURKA); Log[nM] 2.5): 106%
Aurora A % Activity Set1 (aurora A kinase (AURKA); Log[nM] 3.0): 91%
Aurora A % Activity Set2 (aurora A kinase (AURKA); Log[nM] 3.0): 104%
Aurora A % Activity Set3 (aurora A kinase (AURKA); Log[nM] 3.0): 91%
Aurora A % Activity Set1 (aurora A kinase (AURKA); Log[nM] 3.5): 55%
Aurora A % Activity Set2 (aurora A kinase (AURKA); Log[nM] 3.5): 51%
Aurora A % Activity Set3 (aurora A kinase (AURKA); Log[nM] 3.5): 58%
Aurora A % Activity Set1 (aurora A kinase (AURKA); Log[nM] 4.0): 16%
Aurora A % Activity Set2 (aurora A kinase (AURKA); Log[nM] 4.0): 21%
Aurora A % Activity Set3 (aurora A kinase (AURKA); Log[nM] 4.0): 19%
Aurora A % Activity Set1 (aurora A kinase (AURKA); Log[nM] 4.5): 11%
Aurora A % Activity Set2 (aurora A kinase (AURKA); Log[nM] 4.5): 12%
Aurora A % Activity Set3 (aurora A kinase (AURKA); Log[nM] 4.5): 11%
Aurora A % Activity Set1 (aurora A kinase (AURKA); Log[nM] 5.0): 11%
Aurora A % Activity Set2 (aurora A kinase (AURKA); Log[nM] 5.0): 12%
Aurora A % Activity Set3 (aurora A kinase (AURKA); Log[nM] 5.0): 13%
